According to patent US20070128217A1 (priority 2003, published 2007):

Tests used:
[1] = tested on: rabbit serum obtained by immunizing a rabbit with the SARS-CoV strain Frankfurt 1; type: binding; parameters: Binding of a rabbit serum to linear peptides / Binding of a rabbit serum to looped peptides / Rabbit serum linear peptides / Rabbit serum looped peptides / Binding of a rabbit serum to linear peptides of protein N of SARS-CoV Urbani (Rabbit serum linear peptides) / Binding of a rabbit serum to looped/cyclic peptides of protein N of SARS-CoV Urbani (Rabbit serum looped peptides): unit not given here
[2] = tested on: control sera (pooled serum of ten healthy LUMC hospital workers; commercial negative donor pooled serum from the Dutch bloodbank); type: binding, human; parameters: Binding of Control serum LUMC to linear peptides / Binding of Control serum Blood-bank to linear peptides / Binding of Control serum LUMC to looped peptides / Binding of Control Serum Blood-Bank to Looped peptides / Binding of Control serum LUMC to linear peptides of the protein M of SARS-CoV Urbani / Binding of Control serum Blood-bank to linear peptides of the protein M of SARS-CoV Urbani / Binding of Control serum LUMC to looped peptides of the protein M of SARS-CoV Urbani / Binding of Control Serum Blood-Bank to Looped peptides of the protein M of SARS-CoV Urbani: unit not given here
[3] = tested on: antibodies in sera from SARS patients (sera 1a, 1b, 2, 6, 37, 62, London, SARS-yellow, SARS-green); type: binding, human; parameters: Binding of serum 6 to linear peptides of protein X1 of SARS-CoV Urbani / Binding of serum 37 to linear peptides of protein X1 of SARS-CoV Urbani / Binding of serum 6 to looped/cyclic peptide (PEPSCAN-ELISA) / Binding of serum 37 to looped/cyclic peptide (PEPSCAN-ELISA) / Binding of serum 37 to looped/cyclic peptides of protein X1 of SARS-CoV Urbani / Binding of serum 6 to linear peptides of protein X2 / Binding of serum 37 to linear peptides of protein X2 / Binding of serum 37 to looped/cyclic peptides of protein X2 of SARS-CoV Urbani / Binding of serum 6 to linear peptides of protein M of SARS-CoV Urbani / Binding of serum 37 to linear peptides of protein M of SARS-CoV Urbani / Binding of serum 6 to looped/cyclic peptides of protein M of SARS-CoV Urbani / Binding of serum 37 to looped/cyclic peptides of protein M of SARS-CoV Urbani / Binding of serum 6 to linear peptides of protein X3 of SARS-CoV Urbani / Binding of serum 37 to linear peptides of protein X3 of SARS-CoV Urbani / Binding of serum 37 to looped/cyclic peptides of protein X3 of SARS-CoV Urbani / Binding of serum 6 to linear peptides of protein X4 of SARS-CoV Urbani / Binding of serum 37 to linear peptides of protein X4 of SARS-CoV Urbani / Binding of serum 37 to looped/cyclic peptides of protein X4 of SARS-CoV Urbani / Binding of serum 6 to linear peptides of protein X5 of SARS-CoV Urbani / Binding of serum 37 to linear peptides of protein X5 of SARS-CoV Urbani / Binding of serum 37 to looped/cyclic peptides of protein X5 of SARS-CoV Urbani / Binding of serum 6 to linear peptides of protein N of SARS-CoV Urbani / Binding of serum 37 to linear peptides of protein N of SARS-CoV Urbani / Binding of serum 6 to linear peptide (PEPSCAN-ELISA) / Binding of serum 1a to looped/cyclic peptides of protein N of SARS-CoV Urbani / Binding of serum 1b to looped/cyclic peptides of protein N of SARS-CoV Urbani / Binding of serum 2 to looped/cyclic peptides of protein N of SARS-CoV Urbani / Binding of serum 6 to looped/cyclic peptides of protein N of SARS-CoV Urbani / Binding of serum 37 to looped/cyclic peptides of protein N of SARS-CoV Urbani / Binding of serum 62 to looped/cyclic peptides of protein N of SARS-CoV Urbani / Binding of serum London to looped/cyclic peptides of protein N of SARS-CoV Urbani / Binding of serum SARS-green to looped/cyclic peptides of protein N of SARS-CoV Urbani: unit not given here
[4] = tested on: recombinant human anti-SARS-CoV antibody 03-018; type: binding; parameters: Binding of antibody 03-018 to linear peptides of the N protein of SARS-CoV Urbani / Binding of antibody 03-018 to looped/cyclic peptides of the N protein of SARS-CoV Urbani: unit not given here

Sequence | Binding of a rabbit serum to linear peptides of protein N of SARS-CoV Urbani (Rabbit serum linear peptides) [1] | Binding of a rabbit serum to looped/cyclic peptides of protein N of SARS-CoV Urbani (Rabbit serum looped peptides) [1] | Binding of serum 1a to linear peptides of protein N of SARS-CoV Urbani [3] | Binding of serum 1a to looped/cyclic peptides of protein N of SARS-CoV Urbani [3] | Binding of serum 1b to linear peptides of protein N of SARS-CoV Urbani [3] | Binding of serum 1b to looped/cyclic peptides of protein N of SARS-CoV Urbani [3] | Binding of serum 2 to linear peptides of protein N of SARS-CoV Urbani [3] | Binding of serum 2 to looped/cyclic peptides of protein N of SARS-CoV Urbani [3] | Binding of serum 6 to linear peptides of protein N of SARS-CoV Urbani [3] | Binding of serum 6 to looped/cyclic peptides of protein N of SARS-CoV Urbani [3] | Binding of serum 37 to linear peptides of protein N of SARS-CoV Urbani [3] | Binding of serum 37 to looped/cyclic peptides of protein N of SARS-CoV Urbani [3] | Binding of serum 62 to linear peptides of protein N of SARS-CoV Urbani [3] | Binding of serum 62 to looped/cyclic peptides of protein N of SARS-CoV Urbani [3] | Binding of serum London to linear peptides of protein N of SARS-CoV Urbani [3] | Binding of serum London to looped/cyclic peptides of protein N of SARS-CoV Urbani [3] | Binding of serum SARS-green to linear peptides of protein N of SARS-CoV Urbani [3] | Binding of serum SARS-green to looped/cyclic peptides of protein N of SARS-CoV Urbani [3] | Binding of serum SARS-yellow to linear peptides of protein N of SARS-CoV Urbani [3] | Binding of serum SARS-yellow to looped/cyclic peptides of protein N of SARS-CoV Urbani [3] | further results
VWVATEGALNTPKDH | 0.1 | 0.4 | 0.2 | 0.3 | 0.1 | 0.3 | 0.2 | 0.6 | 0.2 | 0.4 | 0.8 | 0.6 | 0.7 | 0.6 | 0.6 | 1.2 | 0.5 | 0.7 | 0.6 | 0.6 | Binding of Control Serum Blood-Bank to Looped peptides [2]: 0.8; Binding of Control serum Blood-bank to linear peptides [2]: 0.6; Binding of Control serum LUMC to linear peptides [2]: 0.8; Binding of Control serum LUMC to looped peptides [2]: 0.6; Binding of antibody 03-018 to linear peptides of the N protein of SARS-CoV Urbani [4]: 0.1; Binding of antibody 03-018 to looped/cyclic peptides of the N protein of SARS-CoV Urbani [4]: 0.3
WFTALTQHGKEELRF | 0.1 | 0.3 | 0.3 | 0.4 | 0.2 | 0.2 | 0.3 | 0.4 | 0.2 | 0.2 | 1.2 | 0.8 | 0.9 | 0.6 | 0.7 | 0.4 | 0.4 | 0.5 | 0.5 | 0.4 | Binding of Control Serum Blood-Bank to Looped peptides [2]: 0.6; Binding of Control serum Blood-bank to linear peptides [2]: 0.8; Binding of Control serum LUMC to linear peptides [2]: 0.7; Binding of Control serum LUMC to looped peptides [2]: 0.5; Binding of antibody 03-018 to linear peptides of the N protein of SARS-CoV Urbani [4]: 0.1; Binding of antibody 03-018 to looped/cyclic peptides of the N protein of SARS-CoV Urbani [4]: 0.2
WLTYHGAIKLDDKDP | 0.2 | 0.2 | 0.3 | 0.2 | 0.2 | 0.1 | 0.2 | 0.2 | 0.2 | 0.1 | 0.7 | 0.4 | 0.8 | 0.3 | 0.6 | 0.3 | 0.3 | 0.0 | 0.7 | 0.2 | Control Serum Blood-Bank Looped peptides [2]: 0.4; Control serum Blood-bank linear peptides [2]: 0.8; Control serum LUMC linear peptides [2]: 0.7; Control serum LUMC looped peptides [2]: 0.4; Binding of antibody 03-018 to linear peptides of the N protein of SARS-CoV Urbani [4]: 0.1; Binding of antibody 03-018 to looped/cyclic peptides of the N protein of SARS-CoV Urbani [4]: 0.2
